Reference: ChEMBL document CHEMBL1128617, “4-Deoxy-4-aminoavermectins with potent broad spectrum antiparasitic activities” (1995)

Key:
Assay type in all cases: functional
[1] = tested on: Trichostrongylus colubriformis; assay: Antiparasitic activity against Trichostrongylus colubriformis at dose of 0.05 mg/kg in sheep anthelmintic test
[2] = tested on: Oesophagostomum columbianum; assay: Antiparasitic activity against Oesophagostomum columbianum at dose of 0.05 mg/kg in sheep anthelmintic test
Haemonchus contortus [3] = assay: Antiparasitic activity against Haemonchus contortus at dose of 0.05 mg/kg in sheep anthelmintic test
Artemia = assay: In vitro antiparasitic activity in brine shrimp assay
Cooperia oncophora [4] = assay: Antiparasitic activity against Cooperia oncophora at dose of 0.05 mg/kg in sheep anthelmintic test
Trichostrongylus axei [5] = assay: Antiparasitic activity against Trichostrongylus axei at dose of 0.05 mg/kg in sheep anthelmintic test
[6] = tested on: Teladorsagia circumcincta; assay: Antiparasitic activity against Ostertagia circumcincta at dose of 0.05 mg/kg in sheep anthelmintic test
Cooperia = assay: Antiparasitic activity against Cooperia […] at dose of 0.05 mg/kg in sheep anthelmintic test
Ovis aries [7] = assay: Antiparasitic activity against Haemonchus contortus at dose of 0.20 mg/kg in sheep anthelmintic test; details: dose 0.2 mg/kg
Ovis aries [8] = assay: Antiparasitic activity against Trichostrongylus axei at dose of 0.20 mg/kg in sheep anthelmintic test; details: dose 0.2 mg/kg
Ovis aries [9] = assay: Antiparasitic activity against Cooperia […] at dose of 0.20 mg/kg in sheep anthelmintic test; details: dose 0.2 mg/kg
Ovis aries [10] = assay: Antiparasitic activity against Oesophagostomum columbianum at dose of 0.20 mg/kg in sheep anthelmintic test; details: dose 0.2 mg/kg
Ovis aries [11] = assay: Antiparasitic activity against Ostertagia circumcincta at dose of 0.20 mg/kg in sheep anthelmintic test; details: dose 0.2 mg/kg
Ovis aries [12] = assay: Antiparasitic activity against Trichostrongylus colubriformis at dose of 0.20 mg/kg in sheep anthelmintic test; details: dose 0.2 mg/kg
Ovis aries [13] = assay: Antiparasitic activity against Cooperia oncophora at dose of 0.20 mg/kg in sheep anthelmintic test; details: dose 0.2 mg/kg
[14] = tested on: Oesophagostomum columbianum; assay: Antiparasitic activity against Oesophagostomum columbianum at dose of 0.10 mg/kg in sheep anthelmintic test
Cooperia oncophora [15] = assay: Antiparasitic activity against Cooperia oncophora at dose of 0.10 mg/kg in sheep anthelmintic test
Haemonchus contortus [16] = assay: Antiparasitic activity against Haemonchus contortus at dose of 0.10 mg/kg in sheep anthelmintic test
[17] = tested on: Trichostrongylus colubriformis; assay: Antiparasitic activity against Trichostrongylus colubriformis at dose of 0.10 mg/kg in sheep anthelmintic test
[18] = tested on: Teladorsagia circumcincta; assay: Antiparasitic activity against Ostertagia circumcincta at dose of 0.10 mg/kg in sheep anthelmintic test
Trichostrongylus axei [19] = assay: Antiparasitic activity against Trichostrongylus axei at dose of 0.10 mg/kg in sheep anthelmintic test
Ovis aries [20] = assay: Antiparasitic activity against Haemonchus contortus at dose of 0.04 mg/kg in sheep anthelmintic test
Ovis aries [21] = assay: Antiparasitic activity against Oesophagostomum columbianum at dose of 0.04 mg/kg in sheep anthelmintic test
Ovis aries [22] = assay: Antiparasitic activity against Cooperia […] at dose of 0.04 mg/kg in sheep anthelmintic test
Ovis aries [23] = assay: Antiparasitic activity against Trichostrongylus axei at dose of 0.04 mg/kg in sheep anthelmintic test
Ovis aries [24] = assay: Antiparasitic activity against Ostertagia circumcincta at dose of 0.04 mg/kg in sheep anthelmintic test
Ovis aries [25] = assay: Antiparasitic activity against Trichostrongylus colubriformis at dose of 0.04 mg/kg in sheep anthelmintic test

Row | Molecule | Reduction [1] [%] | Reduction [2] [%] | Reduction (Haemonchus contortus [3]) [%] | IC100 (Artemia) [ng/mL] | Reduction (Cooperia oncophora [4]) [%] | Reduction (Trichostrongylus axei [5]) [%] | Reduction [6] [%] | Reduction (Cooperia) [%] | also measured
1 | CCC(C)[C@H]1O[C@]2(C=C[C@@H]1C)C[C@@H]1C[C@@H](C/C=C(\C)[C@@H](O[C@H]3C[C@H](OC)[C@@H](O[C@H]4C[C@H](OC)[C@H](NC(=O)c5ccccc5)[C@H](C)O4)[C@H](C)O3)[C@@H](C)/C=C/C=C3\CO[C@@H]4[C@H](O)C(C)=C[C@@H](C(=O)O1)[C@]34O)O2 (some centres undefined) | <50 | >95 | 76 | 28000 | >95 | <50 | 76 | >95 | 
2 | CCC(C)[C@H]1O[C@]2(C=C[C@@H]1C)C[C@@H]1C[C@@H](C/C=C(\C)[C@@H](O[C@H]3C[C@H](OC)[C@@H](O[C@H]4C[C@H](OC)[C@H](NS(C)(=O)=O)[C@H](C)O4)[C@H](C)O3)[C@@H](C)/C=C/C=C3\CO[C@@H]4[C@H](O)C(C)=C[C@@H](C(=O)O1)[C@]34O)O2 (some centres undefined) | >95 | >95 | >95 | 430 | >95 | >95 | >95 | >95 | 
3 | CCC(C)[C@H]1O[C@]2(C=C[C@@H]1C)C[C@@H]1C[C@@H](C/C=C(\C)[C@@H](O[C@H]3C[C@H](OC)[C@@H](O[C@H]4C[C@H](OC)[C@H](NCc5ccccc5)[C@H](C)O4)[C@H](C)O3)[C@@H](C)/C=C/C=C3\CO[C@@H]4[C@H](O)C(C)=C[C@@H](C(=O)O1)[C@]34O)O2 (some centres undefined) |  |  |  | >55500 |  |  |  |  | Reduction (Ovis aries [7]): >95%; Reduction (Ovis aries [8]): <50%; Reduction (Ovis aries [9]): >95%; Reduction (Ovis aries [10]): >95%; Reduction (Ovis aries [11]): >95%; Reduction (Ovis aries [12]): >95%; Reduction (Ovis aries [13]): >95%
4 | CCC(C)[C@H]1O[C@]2(C=C[C@@H]1C)C[C@@H]1C[C@@H](C/C=C(\C)[C@@H](O[C@H]3C[C@H](OC)[C@@H](O[C@H]4C[C@@H](OC)[C@@H](NC(C)=O)[C@H](C)O4)[C@H](C)O3)[C@@H](C)/C=C/C=C3\CO[C@@H]4[C@H](O)C(C)=C[C@@H](C(=O)O1)[C@]34O)O2 (some centres undefined) | >95 | >95 | >95 | 430 | 76 | >95 | >95 | <50 | 
5 | IVERMECTIN |  |  |  | 430 |  |  |  |  | Reduction [14]: > 95%; Reduction (Cooperia oncophora [15]): > 95%; Reduction (Haemonchus contortus [16]): > 95%; Reduction [17]: > 95%; Reduction [18]: > 95%; Reduction (Trichostrongylus axei [19]): > 95%
6 | CCC(C)[C@H]1O[C@]2(C=C[C@@H]1C)C[C@@H]1C[C@@H](C/C=C(\C)[C@@H](O[C@H]3C[C@H](OC)[C@@H](O[C@H]4C[C@H](OC)[C@H](N(C)C)[C@H](C)O4)[C@H](C)O3)[C@@H](C)/C=C/C=C3\CO[C@@H]4[C@H](O)C(C)=C[C@@H](C(=O)O1)[C@]34O)O2 (some centres undefined) |  |  |  | 1300 |  |  |  |  | Reduction (Ovis aries [20]): >95%; Reduction (Ovis aries [21]): >95%; Reduction (Ovis aries [22]): 51%; Reduction (Ovis aries [23]): <50%; Reduction (Ovis aries [24]): >95%; Reduction (Ovis aries [25]): 51%
7 | CCC(C)[C@H]1O[C@]2(C=C[C@@H]1C)C[C@@H]1C[C@@H](C/C=C(\C)[C@@H](O[C@H]3C[C@H](OC)[C@@H](O[C@H]4C[C@H](OC)[C@H](N(C)C(C)=O)[C@H](C)O4)[C@H](C)O3)[C@@H](C)/C=C/C=C3\CO[C@@H]4[C@H](O)C(C)=C[C@@H](C(=O)O1)[C@]34O)O2 (some centres undefined) | >95 | >95 | >95 | 650 | >95 | >95 | >95 | >95 | 
